Reference: paper PMC6819783, “Cohnella sp. A01 laccase: thermostable, detergent resistant, anti-environmental and industrial pollutants enzyme” (Heliyon, 2019)

Tested on: T1, Cohnella sp. A01 laccase
T1 construct: gene multicopper oxidase; recombinant in E. coli BL21, pET-26b(+) NcoI/XhoI, His-tagged, Ni-Sepharose purified
Assay: oxidation followed at […] nm, Michaelis-Menten fit
Assay type: biochemical
Settings: 0.3-2.5 mM DMP; phosphate buffer; assay pH 8 and 90 °C (optimum; not restated for the kinetics)

- Km: 686 µM
SMILES: COc1cccc(OC)c1O [2,6-dimethoxyphenol]
